Activity calls are given as the source filed them. No cut-off for these calls is given here.

The values below come from ChEMBL document CHEMBL5329222, “Discovery of novel tubulin CBSI (R)-9k from the indanone scaffold for the treatment of colorectal cancer” (RSC Med Chem, 2023).

The test system of series [1] is HCT-116. Briefly: Induction of apoptosis in human HCT-116 cells assessed as early apoptotic cells at 1.5 uM incubated for 24 hrs by annexin V-FITC/7-AAD staining based flow cytometry analysis (reference value: 5.82%). Format: functional.
For another series, the system named is SW480. The experiment in a line: Growth inhibition of human SW480 cells incubated for 1.5 hrs by MTT assay. The series is classed as functional, cell-based.
The test system of series [2] is HCT-116. Briefly: Induction of apoptosis in human HCT-116 cells assessed as necrotic cells at 1.5 uM incubated for 24 hrs by annexin V-FITC/7-AAD staining based flow cytometry analysis (reference value: 2.46%). The series is classed as functional.
Series [3] relates to HCT-116. Briefly: Inhibition of cell migration in human HCT-116 cells at 2 uM measured for 24 hrs by scratch wound healing assay. Format: functional.
Series [4] relates to HCT-116. The experiment in a line: Induction of apoptosis in human HCT-116 cells assessed as necrotic cells at 3 uM incubated for 24 hrs by annexin V-FITC/7-AAD staining based flow cytometry analysis (reference value: 2.46%). The series is classed as functional.
The test system of series [5] is HCT-116. The experiment in a line: Inhibition of colony formation in human HCT-116 cells at 0.1 uM incubated for 48 hrs by crystal violet staining based analysis. The series is classed as functional. The settings on record: HCT-116, 48 h, values are per cent of control.
Series [6] deals with HCT-116. Briefly: Growth inhibition of human HCT-116 cells incubated for 1.5 hrs by MTT assay. The series is classed as functional, cell-based. The settings on record: HCT-116, 1.5 h.
Series [7] relates to HCT-116. Briefly: Induction of cell cycle arrest in human HCT-116 cells assessed as accumulation of cells at G2/M phase at 1.5 uM incubated for 24 hrs by flow cytometry analysis (reference value: 18.25%). The series is classed as functional.
Series [8] concerns HCT-116. The experiment in a line: Inhibition of cell migration in human HCT-116 cells at 0.5 uM measured for 24 hrs by scratch wound healing assay. Format: functional.
A short description of series [9]: Potency index, ratio of test compound IC50 to colchicine IC50 for cytotoxicity against human HUVEC cells assessed as inhibition of cell growth incubated 1.5 hrs by MTT assay. The series is classed as toxicity, cell-based. The settings on record: read-out: Ratio IC50.
In series [10] the target is Tubulin beta (Homo sapiens) (UniProt P68371+Q9H4B7+Q13509+P04350+Q3ZCM7+P07437+Q13885+Q9BVA1+Q9BUF5+A6NNZ2). Briefly: Binding affinity to beta-tubulin colchicine binding site in human HCT-116 cells assessed as inhibition of EBI-beta-tubulin adduct band formation at 1 to 25 uM preincubated for 2 hrs followed by EBI addition measured after 1.5 hrs by EBI competition based Western blotting analysis. Format: cell-based. The conditions noted are these: dose 1-25 µM, time 3.5 hrs.

Series [11] relates to HCT-116. The experiment in a line: Induction of cell cycle arrest in human HCT-116 cells assessed as accumulation of cells at G2 phase at 1.5 uM incubated for 24 hrs by flow cytometry analysis (reference value: 18.25%). The series is classed as functional.
Series [12] deals with HCT-116. The experiment in a line: Induction of cell cycle arrest in human HCT-116 cells assessed as accumulation of cells at G1 phase at 1.5 uM incubated for 24 hrs by flow cytometry analysis (reference value: 68.74%). Format: functional.
The test system of series [13] is HCT-116. The experiment in a line: Induction of apoptosis in human HCT-116 cells assessed as early apoptotic cells at 3 uM incubated for 24 hrs by annexin V-FITC/7-AAD staining based flow cytometry analysis (reference value: 5.82%). The series is classed as functional.

Turning to `CCOc1ccc([C@H]2CC(=O)c3cc(OC)c(OC)c(OC)c32)cc1F`, the Activity is reported as 8.12% in the series with HCT-116 [1]; 2.28% with HCT-116 [2]; 3.2% in the series with HCT-116 [4]; 24.41% in the series on HCT-116 [7]; 24.4% with HCT-116 [11]; 65.69% with HCT-116 [12]. For the same molecule, in the series on HCT-116 [13], the Activity is 18.75%. Also, the IC50 in the series with SW480 is 1310 nM; with HCT-116 [6] it was 260 nM. Moreover, 2 µM produced 55% inhibition in the series with HCT-116 [3]. Further, the growth, % of control at 0.1 µM in the series with HCT-116 [5] was 57.9%. In addition, the inhibition at 0.5 µM in the series with HCT-116 [8] came to 21%. Also, the selectivity ratio at 1.5 h in series [9] was 35. Further, the result in [10] was Active.
